Experiments:
HT-29, Human Colorectal = experiment: Cell proliferation 96-welled in vitro MTT assay, HT-29; format: cell-based; conditions: 72 hr incubation, triplicate
Method: (§1) In vitro Efficacy: The Compounds were tested in a Cell Proliferation 96-welled in vitro MTT assay
(§2) The tests were done in triplicate and the test samples included negative control, positive control and ACB compounds at several concentrations (10^−4 to 10^−8) in 0.4% DMSO/DW medium. The incubation time was 72 hr and the IC50 was calculated from the generated inhibition curves.

[1] = Body weight of nude mice in the NCI-H460 xenograft study; format: in vivo, BALB/c nude mice; conditions: after four weeks, twice every week, model 22.07 ± 1.68
Text: (§3) BALB/c nude mice, were provided by Shanghai SLAC Experimental Animal Co., Ltd. (Experimental animal production license:SCXK (Shanghai) 2003-0003; Experimental animal application license:SYXK (Jiangsu) 2002-0053). The ages of the mice was 35-40 days; their body weight was 18-22 g; half of the mice were female and the other half were male. Eight nude mice were used per group.
(§4) The tumor growing in Log phase was isolated from nude mice and sliced into 1.5 mm^3 particles. Under SPF conditions, the tumor particles were inoculated s.c. of nude mice right axilla. The xenografted tumor was measured the length and width by vernier caliper. Nude mice were randomly divided into eight groups when the bearing tumor reached 100-300mm^3 volume. Tumor length and width were measured twice every week to dynamic evaluate the anticancer activity of the tested compounds. Compound 1 was given by i.p. twice every week, compound 2 was given by i.v. twice every week, compound 3 was given by i.v. twice every week, control Topotecan was given by i.v. twice every week. In model group saline was give i.v. twice every week. After four weeks drug administration, nude mice were sacrificed and tumor was isolated by surgery for weight detection.

[2] = system: NCI-H460 human non-small cell lung cancer; experiment: NCI-H460 human non-small cell lung cancer nude mice xenograft model; format: in vivo, BALB/c nude mice; conditions: for Tumor Weight / Tumor Inhibitory Growth Weight: after four weeks; for Tumor Weight: twice every week, model 3.08 ± 0.88; for effect on nude mice xenograft NCI-H460 human non-small cell lung cancer growth (in words): mouse, in vivo; for dose dependence of anticancer effect (in words): two dosages per compound
Text: In this study the NCI-H460 human non-small cell lung cancer nude mice xenograft model was established and applied for in vivo anti-cancer activity evaluation of three compounds of the invention.
as §3
NCI-H460 human non-small cell lung cancer nude mice xenograft model was established by s.c. injection of 1×10^6 NCI-H460 cells into nude mice axilla. After formation of tumor the xenograft was passaged for three generations in nude mice.
as §4
Tumor volume (TV) was calculated by the following formula: TV=1/2×a×b2 a and b represent length and width, respectively.

Lewis Lung, mouse lung = experiment: Cell proliferation 96-welled in vitro MTT assay, Lewis Lung; format: cell-based; conditions: Lewis lung carcinoma, 72 hr incubation, triplicate
Method: as §1, §2

P388, Mouse Lymphoma = experiment: Cell proliferation 96-welled in vitro MTT assay, P388; format: cell-based; conditions: 72 hr incubation, triplicate
Method: as §1, §2

MCF-7, Human Breast = experiment: Cell proliferation 96-welled in vitro MTT assay, MCF-7; format: cell-based; conditions: MCF7, 72 hr incubation, triplicate
Method: as §1, §2

[3] = Dosage 1: topotecan 2 i.v., Compound 1 0.625 i.p., Compound 2 5 i.v., Compound 3 1.5625 i.v. (mg/kg)
[4] = Dosage 2: Compound 1 0.3125 i.p., Compound 2 2.5 i.v., Compound 3 0.78125 i.v. (mg/kg)
[5] = 0.5 week, Dosage 1: topotecan 2, Compound 1 0.625, Compound 2 5, Compound 3 1.5625 mg/kg, X ± SD, n = 8
[6] = 0.5 week, Dosage 2: Compound 1 0.3125, Compound 2 2.5, Compound 3 0.78125 mg/kg, X ± SD, n = 8
[7] = 1 week, Dosage 1: topotecan 2, Compound 1 0.625, Compound 2 5, Compound 3 1.5625 mg/kg
[8] = 1 week, Dosage 2: Compound 1 0.3125, Compound 2 2.5, Compound 3 0.78125 mg/kg
[9] = 1.5 weeks, Dosage 1: topotecan 2, Compound 1 0.625, Compound 2 5, Compound 3 1.5625 mg/kg
[10] = 1.5 weeks, Dosage 2: Compound 1 0.3125, Compound 2 2.5, Compound 3 0.78125 mg/kg
[11] = 2 weeks, Dosage 1: topotecan 2, Compound 1 0.625, Compound 2 5, Compound 3 1.5625 mg/kg
[12] = 2 weeks, Dosage 2: Compound 1 0.3125, Compound 2 2.5, Compound 3 0.78125 mg/kg
[13] = 2.5 weeks, Dosage 1: topotecan 2, Compound 1 0.625, Compound 2 5, Compound 3 1.5625 mg/kg
[14] = 2.5 weeks, Dosage 2: Compound 1 0.3125, Compound 2 2.5, Compound 3 0.78125 mg/kg
[15] = 3 weeks, Dosage 1: topotecan 2, Compound 1 0.625, Compound 2 5, Compound 3 1.5625 mg/kg
[16] = 3 weeks, Dosage 2: Compound 1 0.3125, Compound 2 2.5, Compound 3 0.78125 mg/kg
[17] = 3.5 weeks, Dosage 1: topotecan 2, Compound 1 0.625, Compound 2 5, Compound 3 1.5625 mg/kg
[18] = 3.5 weeks, Dosage 2: Compound 1 0.3125, Compound 2 2.5, Compound 3 0.78125 mg/kg
[19] = 4 weeks, Dosage 1: topotecan 2, Compound 1 0.625, Compound 2 5, Compound 3 1.5625 mg/kg
[20] = 4 weeks, Dosage 2: Compound 1 0.3125, Compound 2 2.5, Compound 3 0.78125 mg/kg
[21] = higher dosage: compound 3 1.5625 mg/kg i.v., compound 2 5 mg/kg i.v., compound 1 0.625 mg/kg i.p., topotecan 2 mg/kg i.v.
[22] = lower dosage: compound 3 0.78125 mg/kg i.v., compound 2 2.5 mg/kg i.v., compound 1 0.3125 mg/kg i.p.

Row | SMILES | IC50 (HT-29, Human Colorectal) | Ending Body Weight [1, 3] | Ending Body Weight [1, 4] | Tumor Volume [2, 5] | Tumor Volume [2, 6] | Tumor Volume [2, 7] | Tumor Volume [2, 8] | Tumor Volume [2, 9] | Tumor Volume [2, 10] | Tumor Volume [2, 11] | Tumor Volume [2, 13] | Tumor Volume [2, 15] | Tumor Volume [2, 17] | Tumor Volume [2, 19] | Tumor Weight [2, 3] | Tumor Inhibitory Growth Weight [2, 3] | inhibitory rate [2, 21] | IC50 (Lewis Lung, mouse lung) | IC50 (P388, Mouse Lymphoma) | IC50 (MCF-7, Human Breast) | also measured
1 | CC[C@@]1(OC(=O)CNC(=O)/C=C\C(=O)O)C(=O)OCc2c1cc1n(c2=O)Cc2cc3c(CN(C)C)c(OS(=O)(=O)C(C)C)ccc3nc2-1 [Compound 3] | 14.3 µM | 19.63 ± 0.77 g | 18.42 ± 1.04 g | 237.9 mm3 | 211.8 mm3 | 392.9 mm3 | 455.2 mm3 | 547.2 ± 390.0 mm3 | 624.6 ± 371.5 mm3 | 719.6 ± 315.8 mm3 | 958.4 ± 486.2 mm3 | 1093.2 ± 692.2 mm3 | 1400.4 ± 670.6 mm3 | 1588.3 mm3 | 1.36 ± 0.50 g | 55.8 | 55.8% | 0.929 µM | 0.0847 µM | 9.79 µM | Tumor Volume [2, 12]: 795.4 ± 389.0 mm3; Tumor Volume [2, 14]: 999.8 ± 562.9 mm3; Tumor Volume [2, 16]: 1291.5 ± 564.4 mm3; Tumor Volume [2, 18]: 1553.2 ± 706.3 mm3; Tumor Volume [2, 20]: 1908.5 mm3; Tumor Weight [2, 4]: 1.65 ± 0.86 g; Tumor Inhibitory Growth Weight [2, 4]: 46.4; inhibitory rate [2, 22]: 46.4%; effect on nude mice xenograft NCI-H460 human non-small cell lung cancer growth (in words) [2]: could inhibit; dose dependence of anticancer effect (in words) [2]: dose-dependent anticancer effect
2 | CCC1(OC(=O)CNC(=O)/C=C\C(=O)O)C(=O)OCc2c1cc1n(c2=O)Cc2cc3ccccc3nc2-1 (stereo not shown) [Compound 1] | 44.3 µM | 18.86 ± 1.60 g | 18.59 ± 1.46 g | 220.9 mm3 | 194.9 mm3 | 504.2 mm3 | 560.8 mm3 | 706.7 ± 450.3 mm3 | 766.0 ± 480.3 mm3 | 1104.7 ± 759.6 mm3 | 1367.1 ± 880.2 mm3 | 1566.7 ± 867.8 mm3 | 1798.2 ± 767.2 mm3 | 2088.1 mm3 | 1.77 ± 0.73 g | 42.5 | 42.5% | 6.34 µM | 10.9 µM | 20.4 µM | Tumor Volume [2, 12]: 1245.7 ± 585.6 mm3; Tumor Volume [2, 14]: 1459.9 ± 793.3 mm3; Tumor Volume [2, 16]: 1638.9 ± 827.1 mm3; Tumor Volume [2, 18]: 1909.7 ± 464.4 mm3; Tumor Volume [2, 20]: 2209.8 mm3; Tumor Weight [2, 4]: 1.85 ± 0.75 g; Tumor Inhibitory Growth Weight [2, 4]: 39.9; inhibitory rate [2, 22]: 39.9%; effect on nude mice xenograft NCI-H460 human non-small cell lung cancer growth (in words) [2]: could inhibit; dose dependence of anticancer effect (in words) [2]: dose-dependent anticancer effect
3 | CCCS(=O)(=O)Oc1ccc2nc3c(cc2c1CN(C)C)Cn1c-3cc2c(c1=O)COC(=O)C2(CC)OC(=O)CNC(=O)/C=C\C(=O)O (stereo not shown) [Compound 2] | 50.8 µM | 18.93 ± 1.49 g | 17.82 ± 1.06 g | 205.2 mm3 | 182.6 mm3 | 413.8 mm3 | 472.2 mm3 | 602.1 ± 339.3 mm3 | 706.8 ± 360.0 mm3 | 733.7 ± 497.0 mm3 | 950.0 ± 578.0 mm3 | 1147.2 ± 598.0 mm3 | 1632.9 ± 752.6 mm3 | 1639.4 mm3 | 1.55 ± 0.51 g | 49.7 | 49.7% | 12.8 µM | 10.6 µM | 30.8 µM | Tumor Volume [2, 12]: 861.1 ± 523.9 mm3; Tumor Volume [2, 14]: 1084.9 ± 536.3 mm3; Tumor Volume [2, 16]: 1269.1 ± 644.1 mm3; Tumor Volume [2, 18]: 1841.8 ± 859.5 mm3; Tumor Volume [2, 20]: 2029.4 mm3; Tumor Weight [2, 4]: 1.75 ± 0.90 g; Tumor Inhibitory Growth Weight [2, 4]: 43.2; inhibitory rate [2, 22]: 43.2%; effect on nude mice xenograft NCI-H460 human non-small cell lung cancer growth (in words) [2]: could inhibit; dose dependence of anticancer effect (in words) [2]: dose-dependent anticancer effect
4 | CC[C@@]1(O)C(=O)OCc2c1cc1n(c2=O)Cc2cc3c(CN(C)C)c(O)ccc3nc2-1 [topotecan, Topotecan, reference compound] | 22.9 µM | 17.32 ± 1.18 g | – | 209.6 mm3 | – | 574.0 mm3 | – | 759.8 ± 419.9 mm3 | – | 933.1 ± 496.8 mm3 | 1220.7 ± 611.4 mm3 | 1273.3 ± 685.1 mm3 | 1413.0 ± 717.0 mm3 | 1639.9 mm3 | 1.58 ± 0.74 g | 48.7 | 48.7% | 11 µM | 18.5 µM | 22.2 µM | –

Reference: US20080255175A1, “Anti-cancer agents, compositions and methods of treating cancers” (priority 2007, published 2008)
